The subject of this assay is Staphylococcus aureus. As to the kind of experiment: Antibacterial activity against methicillin-resistant Staphylococcus aureus. The assay is classed as functional.

≈ marks a conversion by molar mass, not a printed value.

Regarding `CCC[C@@H]1C[C@@H](C(=O)N[C@@H]([C@H]2O[C@H](SC)[C@H](O)[C@@H](O)[C@H]2O)[C@H](C)Cl)N(C)C1` [CLINDAMYCIN], 0.5 µg/mL (≈ 1.18 µM) was the least that counted as inhibitory (MIC).
The same measure for `CC[C@H]1OC(=O)[C@H](C)[C@@H](O[C@H]2C[C@@](C)(OC)[C@@H](O)[C@H](C)O2)[C@H](C)[C@@H](O[C@@H]2O[C@H](C)C[C@H](N(C)C)[C@H]2O)[C@](C)(O)C[C@@H](C)C(=O)[C@H](C)[C@@H](O)[C@]1(C)O` [ERYTHROMYCIN]: 0.25 µg/mL (≈ 0.341 µM).

The record behind these values is ChEMBL document CHEMBL1649553, “Characterization of ermA in macrolide-susceptible strains of methicillin-resistant Staphylococcus aureus” (2009).
